# Laboratory results: PubChem BioAssay (NCI)
#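 Values below derive from 48-hour exposures of cells grown in 96-well plates, with endpoints linearly interpolated between the two concentrations bracketing the appropriate inhibition level. At the GI50, growth is halved. TGI marks complete inhibition of growth.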
# How the values were obtained:
# Test in all cases: NCI-60 cell line screen, 48 h
# [1] = tested on: SK-MEL-28 melanoma
# [2] = tested on: SF-539 CNS
# [3] = tested on: CCRF-CEM leukemia
# [4] = tested on: HCC-2998 colon
# [5] = tested on: SK-MEL-5 melanoma
# [6] = tested on: NCI-H522 lung
# [7] = tested on: BT-549 breast
# [8] = tested on: A549 NSCLC
# [9] = tested on: NCI/ADR-RES ovarian
# [10] = tested on: UACC-62 melanoma
# [11] = tested on: UO-31 renal
# [12] = tested on: SW-620 colon
# [13] = tested on: ACHN renal
# [14] = tested on: MDA-MB-435
# [15] = tested on: OVCAR-4 ovarian
# [16] = tested on: SF-295 CNS
# [17] = tested on: NCI-H460 lung
# [18] = tested on: 786-0 renal
# [19] = tested on: T-47D breast
# [20] = tested on: NCI-H226 lung
# [21] = tested on: HOP-62 NSCLC
# [22] = tested on: COLO 205 colon
# [23] = tested on: MOLT-4 leukemia
# [24] = tested on: SK-OV-3 ovarian
# [25] = tested on: PC-3 prostate
# [26] = tested on: MCF7 breast
# [27] = tested on: SN12C renal
compound,measurement,setting,value
COc1ccc2c(c1)C(=O)c1c-2n(CCCN=[N+]=[N-])c(=O)c2cc(OC)c(OC)cc12,GI50,[1],> 100 µM
same,TGI,[1],> 100 µM
same,GI50,[2],56.5 µM
same,TGI,[2],> 100 µM
same,GI50,[3],4.01 µM
same,TGI,[3],16.4 µM
same,GI50,[4],13.7 µM
same,TGI,[4],> 100 µM
same,GI50,[5],> 100 µM
same,TGI,[5],> 100 µM
same,GI50,[6],43.8 µM
same,TGI,[6],> 100 µM
same,GI50,[7],> 100 µM
same,TGI,[7],> 100 µM
same,GI50,[8],33 µM
same,TGI,[8],> 100 µM
same,GI50,[9],80.1 µM
same,TGI,[9],> 100 µM
same,GI50,[10],21 µM
same,TGI,[10],> 100 µM
same,GI50,[11],44.3 µM
same,TGI,[11],> 100 µM
same,GI50,[12],> 100 µM
same,TGI,[12],> 100 µM
same,GI50,[13],10.2 µM
same,TGI,[13],25.8 µM
same,GI50,[14],> 100 µM
same,TGI,[14],> 100 µM
same,GI50,[15],> 100 µM
same,TGI,[15],> 100 µM
same,GI50,[16],18 µM
same,TGI,[16],> 100 µM
same,GI50,[17],7.99 µM
same,TGI,[17],> 100 µM
same,GI50,[18],26.7 µM
same,TGI,[18],89.5 µM
same,GI50,[19],> 100 µM
same,TGI,[19],> 100 µM
same,GI50,[20],> 100 µM
same,TGI,[20],> 100 µM
same,GI50,[21],11.6 µM
same,TGI,[21],63.2 µM
same,GI50,[22],> 100 µM
same,TGI,[22],> 100 µM
same,GI50,[23],10.6 µM
same,TGI,[23],23.5 µM
same,GI50,[24],41.6 µM
same,TGI,[24],> 100 µM
same,GI50,[25],50 µM
same,TGI,[25],> 100 µM
same,GI50,[26],81.4 µM
same,TGI,[26],> 100 µM
same,GI50,[27],64.7 µM
